Experimental data reported in PubChem BioAssay (NCI).
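Five concentrations, 48 hours, 96-well plates. TGI: concentration producing complete growth inhibition.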

How the values were obtained:
Experiment in all cases: NCI tumour cell line growth inhibition, 48 h
M14 melanoma = test system: M14 melanoma
NCI-H522 lung = test system: NCI-H522 lung
SNB-19 CNS = test system: SNB-19 CNS
XF 498 CNS = test system: XF 498 CNS
RXF-631 renal = test system: RXF-631 renal
HS 578T breast = test system: HS 578T breast
MCF7 breast = test system: MCF7 breast
MDA-N = test system: MDA-N
SN12K1 renal = test system: SN12K1 renal
P388 leukemia = test system: P388 leukemia

SMILES	TGI (M14 melanoma) [µM]	TGI (NCI-H522 lung) [µM]	TGI (SNB-19 CNS) [µM]	TGI (XF 498 CNS) [µM]	TGI (RXF-631 renal) [µM]	TGI (HS 578T breast) [µM]	TGI (MCF7 breast) [µM]	TGI (MDA-N) [µM]	TGI (SN12K1 renal) [µM]	TGI (P388 leukemia) [µM]
Nc1ccccc1Sc1ccc(Cl)cc1	> 100									
COc1cccc(NC(=O)N/C(=C/c2ccc(N(CCC#N)CCC#N)cc2)NC(=O)c2cc([N+](=O)[O-])ccc2Cl)c1		> 100	> 100	> 100	> 100					
Cc1cc(S(N)(=O)=O)c(S/C(=N\Nc2ccc([N+](=O)[O-])cc2)c2ccc(Cl)cc2)cc1Cl	> 100	11.5	27			> 100	4.59			
C/C(=C1/N=C(c2cc([N+](=O)[O-])ccc2Cl)N(C2=CC=C(Cl)CC2)C1=O)c1cc2ccccc2oc1=O	> 100	> 100	> 100		> 100					
C=CCN1C(=O)/C(=C/c2cccs2)N=C1SC1OC(COC(=O)c2ccccc2)C(OC(=O)c2ccccc2)C1OC(=O)c1ccccc1 (stereo not given)		28					> 100			
C=C1C(C[C@@H]2O[C@H]3C[C@H]4O[C@@]5(C[C@@H]6O[C@]7(C[C@H](C)[C@@H]8O[C@@H]9CC(C(O)CO)O[C@@H]9C[C@@H]8O7)C[C@H](C)[C@@H]6O5)C[C@H]4O[C@H]3[C@H](C)[C@H]2O)O[C@@H](CC[C@@H]2O[C@@H](CC[C@@]34CC5O[C@H]6C(O[C@H]7CC[C@H](CC(=O)OC)O[C@@H]7[C@@H]6O3)[C@H]5O4)CC2=C)C[C@H]1C (stereo not given in full)	> 1		> 1				> 1	0.000124		
O=C(COC(=O)c1ccccc1)c1ccc(Br)cc1	31		30.5			29.6	24.8	16.4		
O=S(=O)(O)c1ccc(N=Nc2ccc(N=Nc3ccc(/C=C/c4ccc(N=[N+]([O-])c5ccc(/C=C/c6ccc(N=Nc7ccc(N=Nc8ccc(S(=O)(=O)O)cc8)c8ccccc78)cc6S(=O)(=O)O)c(S(=O)(=O)O)c5)cc4S(=O)(=O)O)c(S(=O)(=O)O)c3)c3ccccc23)cc1		99.7		> 100			> 100		> 100	> 100
